Earlier results on two molecules are cited in patent US8592434B2, “Mucoadhesive buccal tablets for the treatment of orofacial herpes” (BioAlliance Pharma SA, priority 2009, dated 2013).

SMILES strings stand for the structures.

The conditions of the data set: oral treatment, irrespective of the dosage and duration.

Take `CC(=O)OCC(CCn1cnc2cnc(N)nc21)COC(C)=O` [famciclovir, diacetyl ester of 6-deoxy pencyclovir]: the “Headaches, treated patients” value was “about 10%”.
As for `CC(C)[C@H](N)C(=O)OCCOCn1cnc2c(=O)[nH]c(N)nc21` [valacyclovir, L-valine ester of acyclovir], the “Headaches, treated patients” value is “about 10%”.
